The record followed here is patent US20240415825A1, “COMPOUNDS FOR THE TREATMENT OF MALARIA” (FUNDACIÓ INSTITUT DE BIOENGINYERIA DE CATALUNYA, priority 2021, published 2024).

Where two headings read alike, the source gives them in different places.

One data set relates to P. falciparum cultures. Briefly: Combination assay of AID-X-2020 and artemisinin (isobologram, FIC). The class given is cell-based, Plasmodium falciparum. The following applies: combined with artemisinin in different ratios. The method, then:
For assays of AID-X-2020 and artemisinin, serial dilutions of both compounds were prepared at different concentration ratios (1:0, 0:1, 1:1, 1:2, 2:1, 1:5 and 5:1).
To assess the synergistic effect of AID-X-2020 and artemisinin, IC50 values for each individual compound in the mixtures were calculated as described above and plotted in an isobologram (“x” value=AID-X-2020 IC50 and “y” value=artemisinin IC50). Fractional inhibitory concentration (FIC) values were calculated by dividing the IC50 of one of the compounds in the mixture by the IC50 of the same compound in the 1:0 or 0:1 ratio mixture.

The subject of data set [1] is human umbilical vein endothelial cell cultures. The data set can be described thus: Cytotoxicity (CC50) and in vitro therapeutic index. The class given is cell-based.
Data set [2] is described as follows: Cytotoxicity (CC50) and in vitro therapeutic index. The format is cell-based, human. The conditions noted are these: human umbilical vein endothelial cells (HUVEC); human umbilical vein endothelial cell cultures.
A further data set has as its target T1, preformed Aβ40 fibrils (Homo sapiens, UniProt P05067).
T1 construct: Amyloid-β peptide fragment 1-40 (Aβ40); purchased GenScript
Briefly: Disaggregation of preformed Aβ40 fibrils. The class given is biochemical. The conditions noted are these: 24 h after fibril formation, ThT and TEM. As to the method:
To test the effect of AID-X-2020 on already formed amyloid fibrils, Aβ40 DMSO solutions were diluted to 25 μM in PBS and incubated as above in order to allow fibril formation. Then, AID-X-2020 was added at different concentrations (0.1 μM AID-X-2020, 1 μM AID-X-2020 and 10 μM AID-X2020) and the mixture was incubated in the same conditions for another 24 h. The final samples always contained less than 5% DMSO to avoid interference of this solvent on Aβ40 amyloid fibril formation. Finally, ThT treatment and TEM analysis was performed as described in section 3.1 of EXAMPLE 3. The analysis of aggregation inhibition and disaggregation performed with aggregative peptides present in P. falciparum proteins were conducted in the same way.

The test system of data set [3] is P. falciparum 3D7 strain. Briefly: P. falciparum growth inhibition assay (3D7 strain). The following applies: for IC50: Plasmodium falciparum, 3D7 strain. The class given is cell-based, Plasmodium falciparum. The method, then:
After the synchronization process, a new culture at 1.5% parasitemia and 2% hematocrit was established and 150 μL aliquots of it were transferred to 96-well plates.
The required amounts of peptides, antimalarial compounds and dyes were added in each well at different concentrations and in triplicates. A positive growth control of untreated parasites and a negative growth control of parasites treated with a lethal dose of chloroquine (1 μM) were also included.
Parasites were grown for 48 h, a complete replication cycle, in standard culturing conditions (5% O2, 5% CO2, and 90% N2 at 37° C.). After the incubation period, 3 μL of culture from each well were mixed with 197 μL of PBS containing 0.1 μM Syto 11 (Thermo Fisher Scientific Inc), to obtain a final concentration of ca. 1-10×10^6 cells/ml.
Parasitemia was assessed by flow cytometry using a LSRFortessa flow cytometer (BD Biosciences, San Jose, CA, USA) set up with the 4 lasers, 20 parameters standard configuration. The single-cell population was selected on a forward-side scatter scattergram.
Growth inhibition was calculated taking as reference values both the growth rate of the untreated culture and the growth rate of the culture treated with chloroquine.

In the next data set the target is T2, Aβ40 (Homo sapiens, UniProt P05067).
T2 construct: Amyloid-β peptide fragment 1-40 (Aβ40); purchased GenScript
T2 sequence (P05067 672-711 limits assumed, species assumed): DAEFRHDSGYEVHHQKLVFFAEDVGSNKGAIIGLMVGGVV
The data set can be described thus: In vitro Aβ40 aggregation (ThT fluorescence, TEM). The class given is biochemical. The following applies: 25 μM Aβ40.

Data set [4] relates to P. falciparum 3D7 strain. The data set can be described thus: Dot blot / Western blot of treated P. falciparum cultures (ubiquitinated proteins, amyloid fibrils). The class given is cell-based, Plasmodium falciparum. The method, then: Cultures of the P. falciparum 3D7 strain were sorbitol synchronized in ring stages, and after 24 h were treated for 90 min with AID-X-2020 concentrations ranging from 33 nM to 33 μM. After that time, cultures were spun down and pellets were washed once with ice-cold PBS supplemented with EDTA-free protease inhibitor cocktail (PIC, Roche; 1 PIC tablet/10 mL PBS). For anti-ubiquitin Western blots, PBS was also supplemented with 20 mM N-ethylmaleimide. […] Protein extracts were quantified with the bicinchoninic acid assay (ThermoFisher Scientific), following the manufacturer's instructions. […]
For Western blots, 15 μg of saponin-extracted proteins were incubated for 5 min at 95° C. diluted in Laemmli solution (0.14 M SDS, 0.125 M tris-HCl, pH 6.8, 20% glycerol, 10% 2-mercaptoethanol, 3 mM bromophenol blue) and resolved by SDS-PAGE in 12% bis-tris acrylamide (Bio-Rad) gels run at 80 V until samples entered the resolving gel and at 120 V afterwards. […] After probing with secondary antibodies, for both dot blot and Western blot membranes, four washes with TBS-Tween and one last wash with TBS were done and peroxidase substrate (ECL Prime Western Blotting Detection Reagent, Amersham Life Science, Inc.) was poured on the membrane and chemiluminescent signal was measured in a LAS 4000 reader (ImageQuant) at different exposure times.
For orientation: In western blotting, separated proteins are transferred to a membrane and probed.

T1 sequence (P05067 672-711 limits assumed, species assumed): as above

One may read the CC50 as the concentration that lowers cell viability or growth by half. A high value points to lower toxicity to the cells. The term IC50 denotes the concentration at which inhibition is half-maximal. For the molecule `CCN(CC)c1ccc(/C=C/c2cc[n+](CCCCCCCCCC[n+]3ccc(/C=C/c4ccc(N(CC)CC)cc4)c(C)c3)cc2C)cc1` [AID-X-2020, 1,1′-(decane-1,10-diyl)bis{4-[(E)-4-(diethylamino)styryl]-3-methylpyridin-1-ium} dibromide], in the data set with P. falciparum cultures, the ZFIC values result is listed as “higher than 1.5”. Also, the “Therapeutic index in vitro” value in data set [1] (50% cytotoxic concentration (CC50)/IC50 in 3D7 strain) is reported as 23.3. For the same molecule, in data set [1] (HUVEC CC50, text value), the “therapeutic index (CC50/IC50)” value amounted to 37.8. Besides, the CC50 in data set [2] worked out at 3400 nM. Also, on preformed Aβ40 fibrils, the “concentration disassembling preformed Aβ40 fibrils” value is recorded as over 90 nM. Besides, the “in vitro IC10” value in the data set with P. falciparum 3D7 strain [3] (P. falciparum cultures) is reported as 27 nM. The IC50 in the data set with P. falciparum 3D7 strain [3] (48 h, Table 2, read-out: IC50 in 3D7 strain (μM) ± SEM) is 0.09 ± 0.02 µM; in the data set with P. falciparum 3D7 strain [3] (Example 8, read-out: IC50 in 3D7 strain), 0.09 µM; in the data set on P. falciparum 3D7 strain [3] (read-out: IC50 in P. falciparum in vitro cultures), 0.09 ± 0.002 µM. At Aβ40, the “inhibition of the aggregation of Aβ40” value is recorded as “strong inhibitor”. Also, the “effect on ubiquitinated proteins” value in the data set on P. falciparum 3D7 strain [4] (90 nM treatment of P. falciparum cultures, along time) was “reduction in ubiquitinated proteins”. Moreover, in the data set on P. falciparum 3D7 strain [4] (90 min exposure, dot blot), the “concentration inhibiting amyloid fibril formation” value is over 3 µM.
